Experimental data published in patent publication US20230348493A1, “COMPOUND FOR ADJUSTING ACTIVITY OF NMDA RECEPTOR, AND PHARMACEUTICAL COMPOSITION AND USE THEREOF” (BEIJING GREATWAY PHARMACEUTICAL TECHNOLOGY CO., LTD., priority 2020, published 2023).
Where two headings read alike, the source gives them in different places.

What was measured:
NMDA receptor [1] = molecular target: T1, NMDA receptor (Rattus norvegicus, UniProt P35439); assay: Inhibition of [3H]-MK-801 binding to rat crude synaptosomes (receptor ligand binding assay)
T1 construct: After the rats were decapitated, the prefrontal cortex and hippocampus were rapidly separated on ice; from tissue; host or cells: SD male rat prefrontal cortex and hippocampus, crude synaptosomes
Procedure: The affinity of the tested compounds on NMDA receptor was researched by receptor ligand binding assays.
Ten SD male rats of SPF grade were ordered and acclimated for 7 days for future use.
(§1) After the rats were decapitated, the prefrontal cortex and hippocampus were rapidly separated on ice and weighed, 10 volumes of 50 mM Tris-HCl buffer (50 mM Tris-HCl, 5 mM MgCl2·6H2O, 1 mM EDTA, 0.5% (W/V) BSA, 1 mM PMSF, 0.32 M sucrose, pH 7.4) was added, and the mixture was homogenized for five times at 1500 revolutions/min with 30 s each time. A homogenate was centrifuged for 10 min at 1000×g, and a supernatant was taken and centrifuged for 10 min at 40,000×g, the precipitates were collected, re-suspended with volumes of Tris-HCl buffer, incubated at 37° C. for 10 min, and centrifuged for 10 min at 40,000×g, finally the precipitates were re-suspended with the above buffer, aliquoted and stored at −80° C. for later use.
(2) Detection of Inhibitory Function of Tested Medicines on Binding of Crude Synaptosomes in Rats to [^3H]-MK-801
50 μg of rat crude synaptosomal proteins was added to all tubes respectively. A volume of 50 μl of MK-801 (dizocilpine) was added to a non-specific binding tube to achieve a final concentration of 100 μM, and the materials were reacted for 15 min in advance. 20 μL of control drug at corresponding concentration was added to the test tube for reaction for 15 min. A volume of 30 μl of labeled ligand [^3H]-MK-801 was successively added to all tubes to achieve a final concentration of 10 nM. All reaction tubes were supplemented to a volume of 200 μl with 50 mM Tris-HCl buffer (50 mM Tris-HCl, 5 mM MgCl2·6H2O, 1 mM EDTA, 0.5% (WN) BSA, 0.1% NaN3, pH 7.4). A reaction was carried out at 37° C. for 10 min. A type-49 glass fiber filter membrane was prepared and a sample was applied at the same time. The filter membrane was placed in a multi-head cell collector, and a reaction system was subjected to suction filtration under negative pressure and washed with an ice-cold 50 mM Tris-HCl buffer, 10 ml each time, for a total of 5 times. After suction drying, 1 ml of scintillation liquid was added to the filter membrane, the filter membrane was placed on a shaker for shaking for 1.5 h and then placed in a liquid scintillation counter on the next day to determine the radioactive intensity.
GraphPad5.0 software was used to analyze the data, and the percentage of competitive inhibition was calculated through nonlinear fitting, wherein:
Percentage of competitive inhibition %=((total binding tube cpm−compound cpm)/(total binding tube cpm−non-specific binding tube cpm))×100%;
Specific binding amount=total binding amount−non-specific binding amount, wherein each binding site was determined by double compound tubes.

NMDA receptor [2] = molecular target: T1, NMDA receptor; assay: NMDA receptor agonistic properties in rat crude synaptosomal proteins (maximum [3H]-MK-801 binding vs 1 mM glycine); assay type: biochemical; settings: maximum [3H]-MK-801 binding % relative to 1 mM glycine; 50 μM glutamic acid
Procedure: as §1
(3) Detection of Influence of Tested Medicines on NMDA Receptor Agonistic Properties in Rat Crude Synaptosomal Proteins
100 μg of rat crude synaptosomal proteins was added to all tubes respectively. 50 μl of 5,7-dichlorokynurenic acid was added to a non-specific binding tube to achieve a final concentration of 10 μM. All tubes were preloaded with 50 μM of glutamic acid, and the materials were reacted for 15 min in advance. 20 μL of control drug at corresponding concentration was added to the test tube, and then reacted for 15 min. 1 mM glycine was added to the maximum reaction tube. A volume of 30 μl of labeled ligand [^3H]-MK-801 was successively added to all tubes to achieve a final concentration of 10 nM, and reacted for 15 min. All reaction tubes were supplemented to a volume of 500 μl with 50 mM Tris-HCl buffer (50 mM Tris-HCl, 5 mM MgCl2·6H2O, 1 mM EDTA, 0.5% (WN) BSA, 0.1% NaN3, pH 7.4). A reaction was carried out at 37° C. for 15 min. A type-49 glass fiber filter membrane was prepared and a sample was applied at the same time. The filter membrane was placed in a multi-head cell collector, and the reaction system was subjected to suction filtration under negative pressure and washed with an ice-cold 50 mM Tris-HCl buffer, 10 ml each time, for a total of 5 times. After suction drying, 1 ml of scintillation liquid was added to the filter membrane, the filter membrane was placed on the shaker for shaking for 1.5 h and then placed in the liquid scintillation counter on the next day to determine the radioactive intensity.
In an agonistic experiment, maximum [^3H]-MK-801 binding %=((tested compounds cpm−5,7 dichlorokynurenic acid cpm)/(1 mM glycine cpm−5,7 dichlorokynurenic acid cpm))×100%.

[3] = affinity on NMDA, [3H]-MK-801 10 nM, rat prefrontal cortex and hippocampus crude synaptosomes, read-out: IC50

| SMILES | IC50 (NMDA receptor [1]; [3]) | Maximum agonistic efficacy (%) (NMDA receptor [2]) | IC50 (NMDA receptor [1]) |
| --- | --- | --- | --- |
| CC(C)(C)OC(=O)N1CCC2(CC1)NCCS2 [A-030] | 0.35 nM | 39% | – |
| C[C@@H](O)[C@H](NC(=O)[C@@H]1CSC2(CNC2)N1)C(N)=O.Cl [A-370] | – | 46% | 0.36 nM |
| CC(C)C(=O)N1CCC2(CC1)SCCN2C(=O)[C@@H](N)[C@@H](C)O.Cl [A-358] | 0.86 nM | 78% | – |
| NC(=O)C(CO)NC(=O)C1CSC2(CN(C(=O)C(N)CO)C2)N1 (stereo not drawn) [A-334] | 0.38 nM | 34% | – |
| CC(C)[C@H](N)C(=O)N1CCSC12CN(C(=O)[C@@H](N)[C@@H](C)O)C2.Cl [A-331] | 0.59 nM | 31% | – |
| CC(C)[C@H](N)C(=O)N1CCC2(CC1)N[C@H](C(N)=O)CS2.Cl [A-276] | 0.25 nM | 28% | – |
| CC(C)(C)OC(=O)N1CCC2(C1)NCCS2 (stereo not drawn) [A-016] | 0.35 nM | 56% | – |
| C[C@@H](O)[C@H](NC(=O)[C@@H]1CSC2(CCNCC2)N1)C(N)=O.Cl [A-390] | 0.39 nM | 55% | – |
| C[C@@H](O)[C@H](N)C(=O)N1CCC2(CC1)N[C@H](C(=O)N[C@H](C(N)=O)[C@@H](C)O)CS2.Cl [A-394] | 0.79 nM | 63% | – |
| COC(=O)[C@@H]1CSC2(CCN(C(=O)[C@@H](N)[C@@H](C)O)CC2)N1.Cl [A-291] | 0.88 nM | 13% | – |
| CC(C)C(=O)N1CC2(C1)N[C@H](C(N)=O)CS2 [A-256] | 0.89 nM | 28% | – |
| CC(C)CN1CCSC12CN(C(=O)[C@@H](N)[C@@H](C)O)C2.Cl [A-162] | 0.45 nM | 38% | – |
| CC(C)[C@H](N)C(=O)N1CCSC12CNC2.Cl [A-329] | – | 26% | 0.73 nM |
| C[C@@H](O)[C@H](N)C(=O)N1CC2(C1)N[C@H](C(=O)N1CCOCC1)CS2.Cl [A-409] | 0.56 nM | 36% | – |
| C[C@@H](O)[C@H](N)C(=O)N1CC2(C1)SCCN2C(=O)C(C)(C)C.Cl [A-130] | 0.48 nM | 43% | – |
| CC(=O)N1CC2(C1)SCCN2C(=O)[C@@H](N)CC(N)=O.Cl [A-342] | 0.56 nM | 32% | – |
| C[C@@H](O)[C@H](N)C(=O)N1CCC2(C1)N[C@H](C(=O)N1CCN(C)CC1)CS2.Cl (stereo partly drawn) [A-429] | 0.66 nM | 57% | – |
| CC(C)C(=O)N1CCSC12CNC2.Cl [A-093] | – | 65% | 0.48 nM |
| CC(=O)N1CC2(C1)SCCN2C(C)=O [A-059] | 0.75 nM | 33% | – |
| CC(=O)N1CCSC12CCN(C(=O)[C@@H](N)[C@@H](C)O)C2.Cl (stereo partly drawn) [A-074] | 0.89 nM | 38% | – |
| CC(=O)N1CC2(C1)N[C@H](C(=O)N[C@@H](CO)C(N)=O)CS2 [A-333] | 0.41 nM | 19% | – |
| CC(=O)N1CCC2(CC1)NCCS2 [A-031] | 0.35 nM | 52% | – |
| Cl.NC(=O)[C@@H]1CSC2(CCN(C(=O)[C@@H](N)CO)CC2)N1 [A-275] | 0.35 nM | 12% | – |
| CC(C)(C)OC(=O)N1CC2(C1)NCCS2 [A-002] | 0.33 nM | 45% | – |

| SMILES | IC50 (NMDA receptor [1]; [3]) | Maximum agonistic efficacy (%) (NMDA receptor [2]) | IC50 (NMDA receptor [1]) |
| --- | --- | --- | --- |
| CN1CCN(C(=O)[C@@H]2CSC3(CCCN(C(=O)[C@@H](N)CO)C3)N2)CC1.Cl (stereo partly drawn) [A-463] | 0.52 nM | 59% | – |
| CC(C)(C)OC(=O)N1CCCC2(C1)NCCS2 (stereo not drawn) [A-044] | 0.66 nM | 28% | – |
| C[C@@H](O)[C@H](N)C(=O)N1CCC2(C1)N[C@H](C(N)=O)CS2.Cl (stereo partly drawn) [A-266] | 3.2 nM | 45% | – |
| CC(=O)N1[C@H](C(N)=O)CSC12CN(C(=O)[C@@H](N)C(C)O)C2.Cl (stereo partly drawn) [A-335] | 0.48 nM | 42% | – |
| Cl.N[C@@H](CO)C(=O)N1CCC2(CC1)N[C@H](C(=O)N1CCNCC1)CS2 [A-476] | 0.96 nM | 56% | – |
| CC(=O)N1CCC2(CC1)SCCN2C(C)=O [A-079] | 1.25 nM | 41% | – |
| C[C@@H](O)[C@H](N)C(=O)N1CCC2(C1)SCCN2C(=O)[C@@H](N)[C@@H](C)O.Cl (stereo partly drawn) [A-353] | 0.48 nM | 53% | – |
| C[C@@H](O)[C@H](N)C(=O)N1CC2(C1)SCCN2C.Cl [A-226] | 0.33 nM | 45% | – |
| CC(=O)N1CCSC12CN(C(=O)[C@@H](N)C(C)C)C2.Cl [A-068] | 1.3 nM | 48% | – |
| C[C@@H](O)[C@H](N)C(=O)N1CCC2(CC1)N[C@H](C(=O)N1CCCCC1)CS2.Cl [A-437] | 0.33 nM | 42% | – |
| CC(=O)N1CCC2(CC1)SCCN2C(=O)C(C)C [A-111] | 1.58 nM | 38% | – |
| C[C@@H](O)[C@H](N)C(=O)N1CCCC2(C1)SCCN2C(=O)[C@@H](N)[C@@H](C)O.Cl (stereo partly drawn) [A-367] | 0.29 nM | 39% | – |
| C[C@H](NC(=O)[C@@H]1CSC2(CN(C(=O)[C@@H](N)[C@@H](C)O)C2)N1)C(N)=O.Cl [A-378] | 1.66 nM | 49% | – |
| CC(C)C(=O)N1CCSC12CCCN(C(=O)[C@@H](N)[C@@H](C)O)C2.Cl (stereo partly drawn) [A-122] | 1.65 nM | 38% | – |
| C[C@@H](O)[C@H](N)C(=O)N1CCC2(C1)SCCN2C.Cl (stereo partly drawn) [A-234] | 1.58 nM | 75% | – |
| Cl.N[C@@H](CO)C(=O)N1CCC2(CC1)NCCS2 [A-035] | 0.88 nM | 19% | – |
| CC(=O)N1CCSC12CCN(C(=O)OC(C)(C)C)CC2 [A-078] | 1.59 nM | 56% | – |
| CC(=O)N1CCSC12CCCN(C(=O)[C@@H](N)[C@@H](C)O)C2.Cl (stereo partly drawn) [A-090] | 0.45 nM | 36% | – |
| Cl.N[C@@H](CO)C(=O)N1CC2(C1)N[C@H](C(=O)N1CCNCC1)CS2 [A-470] | 0.35 nM | 33% | – |
| CC(C)C(=O)N1CCC2(CC1)N[C@H](C(N)=O)CS2 [A-272] | 0.54 nM | 19% | – |
| CC(=O)N1CCC2(C1)N[C@H](C(=O)N[C@H](C(N)=O)[C@@H](C)O)CS2.Cl (stereo partly drawn) [A-384] | 0.42 nM | 39% | – |
| CC(C)[C@H](N)C(=O)N1CCC2(CC1)NCCS2.Cl [A-036] | 0.89 nM | 28% | – |
| C[C@@H](O)[C@H](N)C(=O)N1CCCC2(C1)N[C@H](C(=O)N[C@H](C(N)=O)[C@@H](C)O)CS2.Cl (stereo partly drawn) [A-401] | 0.44 nM | 75% | – |
| C[C@@H](O)[C@H](N)C(=O)N1CCC2(C1)N[C@H](C(=O)N1CCCCC1)CS2.Cl (stereo partly drawn) [A-421] | 0.38 nM | 45% | – |
